According to ChEMBL document CHEMBL1137659, “Molecular epidemiology of clinical isolates of carbapenem-resistant Acinetobacter spp. from Chinese hospitals” (2007):
Values after ≈ are worked out from the molar mass of the structure shown.

Legend:
[1] = tested on: Acinetobacter genospecies 3 (Acinetobacter genomosp. 3); assay: Antimicrobial activity against imipenem and meropenem-resistant Acinetobacter genospecies 3 isolate PU78 by CLSI agar dilution method; conditions: Acinetobacter genospecies 3, isolate PU78
[2] = tested on: Acinetobacter baumannii; assay: Antimicrobial activity against imipenem and meropenem-resistant Acinetobacter baumannii isolate PUA1 by CLSI agar dilution method; format: functional
[3] = tested on: Acinetobacter baumannii; assay: Antimicrobial activity against imipenem and meropenem-resistant Acinetobacter baumannii isolate BJ52 by CLSI agar dilution method; format: functional
[4] = tested on: Acinetobacter genospecies 10/11; assay: Antimicrobial activity against imipenem and meropenem-resistant Acinetobacter genospecies 10/11 isolate ZS5 by CLSI agar dilution method
[5] = tested on: Acinetobacter baumannii; assay: Antimicrobial activity against imipenem and meropenem-resistant Acinetobacter baumannii isolate JN45 by CLSI agar dilution method; format: functional
[6] = tested on: Acinetobacter baumannii; assay: Antimicrobial activity against imipenem and meropenem-resistant Acinetobacter baumannii isolate PU73 by CLSI agar dilution method; format: functional
[7] = tested on: Acinetobacter genospecies 13TU; assay: Antimicrobial activity against imipenem and meropenem-resistant Acinetobacter genospecies 13TU isolate CY6 by CLSI agar dilution method
[8] = tested on: Acinetobacter baumannii; assay: Antimicrobial activity against imipenem and meropenem-resistant Acinetobacter baumannii isolate DL34 by CLSI agar dilution method; format: functional
[9] = tested on: Acinetobacter baumannii; assay: Antimicrobial activity against imipenem and meropenem-resistant Acinetobacter baumannii isolate ZJ49 by CLSI agar dilution method; format: functional
[10] = tested on: Acinetobacter baumannii; assay: Antimicrobial activity against imipenem and meropenem-resistant Acinetobacter baumannii isolate FW-F1 by CLSI agar dilution method; format: functional
[11] = tested on: Acinetobacter phenon 6/ct 13TU; assay: Antimicrobial activity against imipenem and meropenem-resistant Acinetobacter phenon 6/ct 13TU isolate FZ4A18 by CLSI agar dilution method
[12] = tested on: Acinetobacter baumannii; assay: Antimicrobial activity against imipenem and meropenem-resistant Acinetobacter baumannii isolate ZJ32 by CLSI agar dilution method; format: functional
[13] = tested on: Acinetobacter genospecies 10/11; assay: Antimicrobial activity against imipenem and meropenem-resistant Acinetobacter genospecies 10/11 isolate ZS15 by CLSI agar dilution method
[14] = tested on: Acinetobacter baumannii; assay: Antimicrobial activity against imipenem and meropenem-resistant Acinetobacter baumannii isolate ZJ58 by CLSI agar dilution method; format: functional
[15] = tested on: Acinetobacter genospecies 3; assay: Antimicrobial activity against imipenem and meropenem-resistant Acinetobacter genospecies 3 isolate PUA7 by CLSI agar dilution method
[16] = tested on: Acinetobacter baumannii; assay: Antimicrobial activity against imipenem and meropenem-resistant Acinetobacter baumannii isolate BJ3-23 by CLSI agar dilution method; format: functional
[17] = tested on: Acinetobacter phenon 5; assay: Antimicrobial activity against imipenem and meropenem-resistant Acinetobacter phenon 5 isolate PUA6 by CLSI agar dilution method
[18] = tested on: Acinetobacter baumannii; assay: Antimicrobial activity against imipenem and meropenem-resistant Acinetobacter baumannii isolate ZJ36 by CLSI agar dilution method; format: functional
[19] = tested on: Acinetobacter baumannii; assay: Antimicrobial activity against imipenem and meropenem-resistant Acinetobacter baumannii isolate NJ59 by CLSI agar dilution method; format: functional
[20] = tested on: Acinetobacter baumannii; assay: Antimicrobial activity against imipenem and meropenem-resistant Acinetobacter baumannii isolate FZ84 by CLSI agar dilution method; format: functional
[21] = tested on: Acinetobacter phenon 6/ct 13TU (Acinetobacter sp.); assay: Antimicrobial activity against imipenem and meropenem-resistant Acinetobacter phenon 6/ct 13TU isolate PU86 by CLSI agar dilution method
[22] = tested on: Acinetobacter baumannii; assay: Antimicrobial activity against imipenem and meropenem-resistant Acinetobacter baumannii isolate BJ3-9 by CLSI agar dilution method; format: functional
[23] = tested on: Acinetobacter baumannii; assay: Antimicrobial activity against imipenem and meropenem-resistant Acinetobacter baumannii isolate PU4A22 by CLSI agar dilution method; format: functional
[24] = tested on: Acinetobacter baumannii; assay: Antimicrobial activity against imipenem and meropenem-resistant Acinetobacter baumannii isolate BJ55 by CLSI agar dilution method; format: functional
[25] = tested on: Acinetobacter baumannii; assay: Antimicrobial activity against imipenem and meropenem-resistant Acinetobacter baumannii isolate CY7 by CLSI agar dilution method; format: functional
[26] = tested on: Acinetobacter baumannii; assay: Antimicrobial activity against imipenem and meropenem-resistant Acinetobacter baumannii isolate PU4A1 by CLSI agar dilution method; format: functional
[27] = tested on: Acinetobacter genomosp. 3; assay: Antimicrobial activity against imipenem and meropenem-resistant Acinetobacter genospecies 3 isolate PU78 by CLSI agar dilution method; conditions: Acinetobacter genomosp. 3, isolate PU78
[28] = tested on: Acinetobacter genospecies 3; assay: as above
[29] = tested on: Acinetobacter phenon 6/ct 13TU; assay: Antimicrobial activity against imipenem and meropenem-resistant Acinetobacter phenon 6/ct 13TU isolate PU86 by CLSI agar dilution method

| Molecule | MIC [2] [mg/L] | MIC [3] [mg/L] | MIC [4] [mg/L] | MIC [5] [mg/L] | MIC [6] [mg/L] | MIC [7] [mg/L] | MIC [9] [mg/L] | MIC [10] [mg/L] | MIC [12] [mg/L] | MIC [14] [mg/L] | MIC [15] [mg/L] | MIC [16] [mg/L] | MIC [17] [mg/L] | MIC [18] [mg/L] | MIC [20] [mg/L] | MIC [22] [mg/L] | MIC [23] [mg/L] | MIC [24] [mg/L] | MIC [25] [mg/L] | MIC [26] [mg/L] | further results |
| --- | --- | --- | --- | --- | --- | --- | --- | --- | --- | --- | --- | --- | --- | --- | --- | --- | --- | --- | --- | --- | --- |
| NCC[C@H](O)C(=O)N[C@@H]1C[C@H](N)[C@@H](O[C@H]2O[C@H](CN)[C@@H](O)[C@H](O)[C@H]2O)[C@H](O)[C@H]1O[C@H]1O[C@H](CO)[C@@H](O)[C@H](N)[C@H]1O [AMIKACIN] | 8 (≈ 13.7 µM) | 2 (≈ 3.42 µM) | > 256 | 128 (≈ 219 µM) | > 256 | 32 (≈ 54.6 µM) | 256 (≈ 437 µM) | > 256 | > 256 | 64 (≈ 109 µM) | 4 (≈ 6.83 µM) | > 256 | 2 (≈ 3.42 µM) | 2 (≈ 3.42 µM) | > 256 | > 256 | 128 (≈ 219 µM) | > 256 | > 256 | > 256 | MIC [1]: 1 mg/L (≈ 1.71 µM); MIC [8]: > 256 mg/L; MIC [11]: 32 mg/L (≈ 54.6 µM); MIC [13]: 256 mg/L (≈ 437 µM); MIC [19]: > 256 mg/L; MIC [21]: 4 mg/L (≈ 6.83 µM) |
| CC(C)(O/N=C(\C(=O)N[C@@H]1C(=O)N2C(C(=O)[O-])=C(C[n+]3ccccc3)CS[C@H]12)c1csc(N)n1)C(=O)O [CEFTAZIDIME] | > 256 | 16 (≈ 29.3 µM) | > 256 | > 256 | > 256 | > 256 | 32 (≈ 58.5 µM) | > 256 | 64 (≈ 117 µM) | 16 (≈ 29.3 µM) | > 256 | > 256 | > 256 | 16 (≈ 29.3 µM) | > 256 | 8 (≈ 14.6 µM) | > 256 | > 256 | > 256 | > 256 | MIC [1]: 4 mg/L (≈ 7.32 µM); MIC [8]: 64 mg/L (≈ 117 µM); MIC [11]: > 256 mg/L; MIC [13]: 16 mg/L (≈ 29.3 µM); MIC [19]: > 256 mg/L; MIC [21]: > 256 mg/L |
| C[C@@H](O)[C@H]1C(=O)N2C(C(=O)O)=C(SCCNC=N)C[C@H]12 [IMIPENEM ANHYDROUS] | 64 (≈ 214 µM) | 32 (≈ 107 µM) | 64 (≈ 214 µM) | 32 (≈ 107 µM) | 64 (≈ 214 µM) | 32 (≈ 107 µM) | 32 (≈ 107 µM) | 64 (≈ 214 µM) | 64 (≈ 214 µM) | 16 (≈ 53.4 µM) | 16 (≈ 53.4 µM) | 64 (≈ 214 µM) | 64 (≈ 214 µM) | 16 (≈ 53.4 µM) | 16 (≈ 53.4 µM) | 64 (≈ 214 µM) | 64 (≈ 214 µM) | 32 (≈ 107 µM) | 64 (≈ 214 µM) | 64 (≈ 214 µM) | MIC [1]: 16 mg/L (≈ 53.4 µM); MIC [8]: 32 mg/L (≈ 107 µM); MIC [11]: 16 mg/L (≈ 53.4 µM); MIC [13]: 64 mg/L (≈ 214 µM); MIC [19]: 16 mg/L (≈ 53.4 µM); MIC [21]: 16 mg/L (≈ 53.4 µM) |
| C[C@H]1COc2c(N3CCN(C)CC3)c(F)cc3c(=O)c(C(=O)O)cn1c23.C[C@H]1COc2c(N3CCN(C)CC3)c(F)cc3c(=O)c(C(=O)O)cn1c23.O [LEVOFLOXACIN] | 16 | – | > 32 | 0.5 | 16 | 0.12 | 4 | 4 | 16 | > 32 | 0.06 | 4 | 0.06 | 4 | > 32 | 4 | 4 | 16 | > 32 | 4 | MIC [1]: 0.125 mg/L; MIC [11]: 0.12 mg/L; MIC [13]: 4 mg/L; MIC [21]: 0.125 mg/L |
| C[C@@H](O)[C@H]1C(=O)N2C(C(=O)O)=C(S[C@@H]3CN[C@H](C(=O)N(C)C)C3)[C@H](C)[C@H]12 [MEROPENEM] | 64 (≈ 167 µM) | 32 (≈ 83.4 µM) | 128 (≈ 334 µM) | 16 (≈ 41.7 µM) | 64 (≈ 167 µM) | 32 (≈ 83.4 µM) | 32 (≈ 83.4 µM) | 64 (≈ 167 µM) | 32 (≈ 83.4 µM) | 32 (≈ 83.4 µM) | 32 (≈ 83.4 µM) | 64 (≈ 167 µM) | 64 (≈ 167 µM) | 16 (≈ 41.7 µM) | 16 (≈ 41.7 µM) | 32 (≈ 83.4 µM) | 128 (≈ 334 µM) | 32 (≈ 83.4 µM) | 64 (≈ 167 µM) | 64 (≈ 167 µM) | MIC [1]: 32 mg/L (≈ 83.4 µM); MIC [8]: 32 mg/L (≈ 83.4 µM); MIC [11]: 16 mg/L (≈ 41.7 µM); MIC [13]: 64 mg/L (≈ 167 µM); MIC [19]: 16 mg/L (≈ 41.7 µM); MIC [21]: 32 mg/L (≈ 83.4 µM) |
| CN(C)c1ccc(O)c2c1C[C@H]1C[C@H]3[C@H](N(C)C)C(O)=C(C(N)=O)C(=O)[C@@]3(O)C(O)=C1C2=O [MINOCYCLINE] | 4 (≈ 8.74 µM) | 8 (≈ 17.5 µM) | 8 (≈ 17.5 µM) | 0.5 (≈ 1.09 µM) | 8 (≈ 17.5 µM) | 0.25 (≈ 0.546 µM) | 32 (≈ 69.9 µM) | 2 (≈ 4.37 µM) | 16 (≈ 35 µM) | 16 (≈ 35 µM) | 0.5 (≈ 1.09 µM) | 8 (≈ 17.5 µM) | 0.5 (≈ 1.09 µM) | 32 (≈ 69.9 µM) | 4 (≈ 8.74 µM) | 4 (≈ 8.74 µM) | 2 (≈ 4.37 µM) | 16 (≈ 35 µM) | 0.5 (≈ 1.09 µM) | 2 (≈ 4.37 µM) | MIC [27]: ≤ 0.125 mg/L; MIC [8]: 8 mg/L (≈ 17.5 µM); MIC [11]: 0.5 mg/L (≈ 1.09 µM); MIC [13]: 0.25 mg/L (≈ 0.546 µM); MIC [19]: 4 mg/L (≈ 8.74 µM); MIC [21]: ≤ 0.125 mg/L |
| CO[C@H]1/C=C/O[C@@]2(C)Oc3c(C)c(O)c4c(O)c(c(/C=N/N5CCN(C)CC5)c(O)c4c3C2=O)NC(=O)/C(C)=C\C=C\[C@H](C)[C@H](O)[C@@H](C)[C@@H](O)[C@@H](C)[C@H](OC(C)=O)[C@@H]1C [RIFAMPIN] | 32 (≈ 38.9 µM) | 8 (≈ 9.72 µM) | 256 (≈ 311 µM) | > 256 | 4 (≈ 4.86 µM) | > 256 | 8 (≈ 9.72 µM) | 8 (≈ 9.72 µM) | 16 (≈ 19.4 µM) | 8 (≈ 9.72 µM) | 128 (≈ 156 µM) | 8 (≈ 9.72 µM) | > 256 | 8 (≈ 9.72 µM) | 128 (≈ 156 µM) | 8 (≈ 9.72 µM) | 4 (≈ 4.86 µM) | 8 (≈ 9.72 µM) | 4 (≈ 4.86 µM) | 4 (≈ 4.86 µM) | MIC [1]: 4 mg/L (≈ 4.86 µM); MIC [8]: 4 mg/L (≈ 4.86 µM); MIC [11]: 4 mg/L (≈ 4.86 µM); MIC [13]: > 256 mg/L; MIC [19]: 8 mg/L (≈ 9.72 µM); MIC [21]: 256 mg/L (≈ 311 µM) |
| COLISTIN | 0.5 | 1 | 0.5 | 1 | 1 | 0.5 | 1 | 0.5 | 1 | 1 | 0.5 | 1 | 0.5 | 1 | 0.5 | 1 | 1 | 0.5 | 0.5 | 0.5 | MIC [28]: 1 mg/L; MIC [8]: 0.5 mg/L; MIC [11]: 1 mg/L; MIC [13]: 1 mg/L; MIC [19]: 0.5 mg/L; MIC [29]: 1 mg/L |
| GENTAMICIN | > 256 | 4 | > 256 | > 256 | > 256 | > 256 | > 256 | > 256 | > 256 | > 256 | > 256 | > 256 | > 256 | 1 | > 256 | > 256 | > 256 | > 256 | > 256 | > 256 | MIC [28]: 1 mg/L; MIC [8]: > 256 mg/L; MIC [19]: > 256 mg/L; MIC [29]: > 256 mg/L |
